Values after ≈ are worked out from the molar mass of the structure shown.

Data set [1] deals with mouse malignant melanoma B16 F0 cells. As to the kind of experiment: MTT based cell proliferation assay, B16 F0 cells. To be noted: Mus musculus, B16F0, 72 h, MTT; for inhibition at 100 µg/mL: at 100 μg/ml; for inhibition at 100 µg/mL / inhibition at 60 µg/mL: three days; for inhibition at 60 µg/mL: at 60 μg/ml. How it is done:
(§1) The cytotoxic efficacies of the various selenopheno triazene compounds (compounds 1 to 16) was evaluated in both human malignant melanoma A375 cells and mouse malignant melanoma B16 F0 cells by MTT cell proliferation assay kit (Roche Applied Sciences, Germany). The assay was carried out according to the instruction provided by the vendor. Briefly, equal numbers of cells was plated in 96-well flat-bottomed plates and were incubated with both DTIC and the test compounds (compounds 1 to 16) at various concentrations for a period of three days. […] Finally, the cells were solubilized by adding solubilizing solution and allowed to incubate at 37° C. overnight. After complete solubilization of the formazan crystals, the absorbance was read at 540 nm in a microplate reader (BioRad, USA).

Data set [2] deals with human malignant melanoma A375 cells. As to the kind of experiment: MTT based cell proliferation assay, A375 cells. To be noted: A-375, 72 h, at 10 μg/ml, three days. Here is the method: as §1

The melting point is the temperature of the solid-liquid transition. Regarding `CN(C)/N=N/c1cc(C(N)=O)[se]c1C(N)=O` [Compound 2, 3-[(dimethylamino)diazenyl]selenophene-2,5-dicarboxamide], the melting point was 266 to 268 °C.
The inhibition is the relative decrease from the control value, in per cent. Regarding `CN(C)/N=N/c1cc(-c2ccccc2)[se]c1C(N)=O` [Compound 3, 3-[(dimethylamino)diazenyl]-5-phenylselenophene-2-carboxamide], the melting point fell in the range of 222 to 224 °C. In data set [1], this molecule showed an inhibition at 100 µg/mL of 30%. The inhibition at 10 µg/mL in data set [2] is 14%.
For the molecule `CN(C)/N=N/c1cc(C(C)(C)C)[se]c1C(N)=O` [Compound 4, 3-[(dimethylamino)diazenyl]-5-(tert-butyl)selenophene-2-carboxamide], the melting point fell in the range of 218 to 220 °C. The inhibition at 60 µg/mL in data set [1] was found to be 34%. In addition, the inhibition at 10 µg/mL in data set [2] amounted to 0.5%.
With `CN(C)/N=N/c1c(C(N)=O)[se]c2c1CCCC2` [Compound 5, 3-[(dimethylamino)diazenyl]-4,5,6,7-tetrahydrobenzo[1,2-b]selenophene-2-carboxamide], the melting point lay in the range of 198 to 202 °C. The molecule further came in with an inhibition at 60 µg/mL in data set [1] of 0.41%.
In the same order, the values of `CN(C)/N=N/c1c(C(N)=O)[se]c2ncccc12` [Compound 6, 3-[(dimethylamino)diazenyl]selenopheno[2,3-b]pyridine-2-carboxamide] are 230 to 232 °C and 4%.
`CN(C)/N=N/c1cc(-c2ccccc2)[se]c1C(=O)O` [Compound 7, 3-[(dimethylamino)diazenyl]-5-phenylselenophene-2-carboxylic acid] yielded a melting point of 212 to 214 °C. The molecule also had an inhibition at 100 µg/mL in data set [1] of 5%.
The molecule `CN(C)/N=N/c1cc(C(C)(C)C)[se]c1C(=O)O` [Compound 8, 3-[(dimethylamino)diazenyl]-5-(tert-butyl)selenophene-2-carboxylic acid] registered a melting point of 120 to 122 °C. Also, in data set [1] (three days incubation, read-out: Cell proliferation inhibition in B16F0 cells, IC50), the IC50 was found to be 43.6 µg/mL (≈ 144 µM). The molecule further returned an inhibition at 10 µg/mL in data set [2] of 24%.
Molecule `CN(C)/N=N/c1c(C(=O)O)[se]c2c1CCCC2` [Compound 9, 3-[(dimethylamino)diazenyl]-4,5,6,7-tetrahydrobenzo[1,2-b]selenophene-2-carboxylic acid] had a melting point of 100 to 102 °C. In data set [1], at 60 µg/mL the inhibition was 32%.
The like results for `CN(C)/N=N/c1c(C(=O)O)[se]c2ncccc12` [Compound 10, 3-[(dimethylamino)diazenyl]selenopheno[2,3-b]pyridine-2-carboxylic acid] were, in that order, 172 to 174 °C and 12%.
In the same order, the values of `CN(C)/N=N/c1cc(C(C)(C)C)[se]c1C#N` [Compound 11, 3-[(dimethylamino)diazenyl]-5-(tert-butyl)selenophene-2-carbonitrile] are 58 to 60 °C and 48%.
On to `Cn1nnc2cc(-c3ccccc3)[se]c2c1=O` [Compound 12, 3-methyl-6-phenylselenopheno[3,2-d]1,2,3-triazin-4-one], for which the melting point lay in the range of 232 to 234 °C. Testing at 100 µg/mL in data set [1] gave an inhibition of 27%.
Consider `Cn1nnc2cc(C(C)(C)C)[se]c2c1=O` [Compound 13, 6-(tert-butyl)-3-methylselenopheno[3,2-d]1,2,3-triazin-4-one], for which the melting point was 98 to 100 °C. In data set [1], the inhibition at 60 µg/mL was 33%.
As to `Cn1nnc2c3c([se]c2c1=O)CCCC3` [Compound 14, 3-methyl-6,7,8,9-tetrahydrobenzo[1,2-b]1,2,3-triazino[4,5-d]selenophen-4-one], the inhibition at 60 µg/mL in data set [1] amounted to 17%.
As to `Cn1nnc2c([se]c3ncccc32)c1=O` [Compound 15, 3-methyl-1,2,3-triazino[4′,5′-5,4]selenopheno[2,3-b]pyridine-4-one], the melting point is 202 to 204 °C.
`Cn1nnc2c([se]c3ccccc32)c1=O` [Compound 16, 3-methylbenzo[b]1,2,3-triazino[4,5-d]selenophen-4-one] had a melting point of 190 to 192 °C. Besides, the inhibition at 60 µg/mL in data set [1] was 31%.

Values taken from patent US8143237B2, “Anti-cancer drugs, and uses relating for malignant melanoma and other cancers” (Kasina Laila Innova Pharmaceuticals Private Limited, priority 2009, dated 2012).
